One may read the IC50 as the midpoint of a concentration-inhibition curve. A higher IC50 goes with lower potency.

Data on one compound can be found in article PMC11614538, “The proline-rich antimicrobial peptide B7-005: low bacterial resistance, safe for human cells and effective in zebrafish embryo bacteraemia model” (Open Biology, 2024).

One data set has as its system HaCaT cells. Nature of the data set: Cell viability MTT, HaCaT. Format: cell-based, human. The conditions noted are these: 24 h, DMEM, n ≥ 9. How it is done:
Chronic lymphocytic leukaemia-derived MEC-1 cells were cultured in suspension using complete RPMI (EuroClone), supplemented with 100 U ml^−1 penicillin (Sigma), 100 μg ml^−1 streptomycin (Sigma), 2 mM L-glutamine and 10% (v/v) foetal bovine serum (FBS, EuroClone). A549 human lung carcinoma epithelial cells and immortalized human keratinocytes (HaCaT) were grown in adhesion in complete high glucose Dulbecco’s MEM (DMEM, EuroClone) supplemented with 100 U ml^−1 penicillin (Sigma), […] streptomycin (Sigma), 2 mM L-glutamine and 10% (v/v) of FBS. […] All cell lines were counted in a Bürker chamber and diluted to the desired working concentrations.
Cell viability was evaluated by tetrazolium salt (MTT, or MTS for HUVECs only) tests. […] The next day, absorbance was measured at 570 nm using a Nanoquant Infinite-M200Pro plate reader (Tecan, Switzerland).
HUVECs, 7500 cells per well, were seeded in HESFM with 10% FBS in a 96-well flat-bottomed microtitre plate (EuroClone SpA, Italy). […] The plate was then incubated for 2 h at 37°C in a humidified 5% CO2 atmosphere, and the absorbance was measured at 490 nm, using a spectrophotometer (PowerWaveX, Bio-Tek Instruments). The cytotoxicity was calculated by comparing the absorbance of peptide-treated samples with that of the untreated control and expressed in percentage of vitality. […]

The subject of data set [1] is osteosarcoma cell line MG-63. The conditions noted are these: cited from earlier work. An excerpt:
In this study, the response of cells to B7-005 varied according to the cell type. The tumoral MEC-1 cells were the most sensitive to the cytotoxic effects of the peptide, displaying even higher sensitivity to B7-005 than observed in a previous study. However, we note that in the previous study, the peptides were generated by SPOT synthesis and therefore were of lower-grade purification, which likely explains the differences observed with our study. […] These cells were the only non-immortalized or tumor ...

Where two headings read alike, the source gives them in different places. Residues, ends and D or L forms follow the SMILES beside them. Bounds are passed on as bounds.

`CC[C@H](C)[C@H](NC(=O)[C@H](CCCNC(=N)N)NC(=O)[C@@H](N)Cc1c[nH]c2ccccc12)C(=O)N[C@@H](CCCNC(=N)N)C(=O)N[C@@H](CCCNC(=N)N)C(=O)N[C@@H](CCCNC(=N)N)C(=O)N[C@@H](Cc1c[nH]c2ccccc12)C(=O)N1CCC[C@H]1C(=O)N[C@@H](CCCNC(=N)N)C(=O)N[C@@H](CC(C)C)C(=O)N1CCC[C@H]1C(=O)N[C@@H](CCCNC(=N)N)C(=O)N1CCC[C@H]1C(=O)N[C@@H](CCCNC(=N)N)C(=O)N[C@@H](Cc1c[nH]c2ccccc12)C(=O)N[C@@H](CCCNC(=N)N)C(=O)O` [B7-005] (H-WRIRRRWPRLPRPRWR-OH) gave an IC50 with HaCaT cells of under 128 µM. For the same compound, the “concentration up to which MG-63 cells remained unaffected” value is at least 54 µM in data set [1] (equivalent of 128 µg ml^−1, ref [35]) and at least 128 µg/mL in data set [1] (ref [35]).
